Assay results reported in patent US20190030036A1, “PHOSPHODIESTERASE INHIBITOR TREATMENT” (Cyrano Therapeutics, Inc., priority 2013, published 2019).
Marks after values point to notes of the source that are not given here.

System: patients with hyposmia
Experiment: Smell function (DT, RT, ME, H) by forced-choice, three-stimuli, stepwise-staircase technique with four odors; open trial of oral theophylline
Type: in vivo, human
Source text: Patients initially reported their sensory dysfunction as either loss of taste (e.g., flavor) and/or smell function. This subjective response was documented by objective psychophysical measurements of olfactory function administered to each patient by use of a forced-choice, three-stimuli, stepwise-staircase technique in a fixed, controlled design (1, 53). Efficacy of this technique and results of testing were previously documented in a double-blind clinical trial (53). Four odors were used; they were pyridine (dead-fish odor), nitrobenzene (bitter-almond odor), thiophene (petroleum-like odor) and amyl acetate (banana-oil odor). Detection thresholds (DT), recognition thresholds (RT) and magnitude estimation (ME) values for each odor were determined as previously described (1, 53). Thresholds were converted into bottle units (BU) as previously described (53) and results reported as M±SEM of correct responses for each odor in each treatment group; ME was reported in % and results calculated to obtain M±SEM for each treatment group for all correct responses using data for the four highest odor concentrations presented (from 10^−2M—an absolute odor concentration).
In addition, each patient graded the hedonic (H) value of each odor presented for these same odor concentrations (from 10^−2M—an absolute odor concentration using a −100−0−+100 scale). […] Results were obtained by calculating the arithmetical sum of each correct recognition response for each odor with respect to its pleasantness, unpleasantness or neutrality. Arithmetic M±SEM were obtained for each treatment group for each odor presented.
After determination of hyposmia, patients were treated in an open label, fixed design, controlled open trial. Patients were given an oral extended release theophylline in divided daily doses taken in the middle of breakfast and lunch. All patients were initially given 200 mg of theophylline; changes in this dose were made based upon subjective responses to therapy. If at a subsequent return visit, patients reported ≥5% subjective improvement in overall smell function, they continued on this same dose of theophylline and were reevaluated after four to six months of continued treatment. Results from any subsequent return from these improved patients were not included in any subsequent data report. All subsequent comparisons between treated and untreated patients were made only between those patients continuing in the study compared to their own measurements obtained in the untreated state. If patients reported <5% subjective improvement, their theophylline dose was increased by 200 mg daily and they were scheduled for retesting at the study site after two to four months at this new dosage. For patients that reported <5% improvement, this sequence continued until patients reached 800 mg of theophylline, at which time the study was considered completed.
Patients returned for reevaluation after two to four months of treatment. Measurements of blood serum theophylline were measured by a fluorescence polarization assay (Abbott, Chicago, Ill.). At this time, subjective changes in smell function were measured independently (compared to patient's memory of previous normal smell function monitored by use of the patients' daily measurements) using the scale from −100−0-+100 previously described. After independently recording their subjective responses, smell function was measured for all four odors with DT, RT, ME and H determined without recourse to prior measurements.
Since data for all measurements from each patient group (local or distant) on each dose level were combined mean and SEM for each measurement (DT, RT, ME, H) of smell function for each treatment group were calculated on this basis. Differences in measurements between before treatment and each treatment level were calculated and significance of differences estimated using Student t tests (values p<0.05 considered significant). […]

[1] = amyl acetate, oral theophylline 200 mg
[2] = amyl acetate, oral theophylline 200 mg daily, all patients (199)
[3] = amyl acetate, oral theophylline 200 mg, Type I hyposmia (57)
[4] = amyl acetate, oral theophylline 200 mg, Type II hyposmia (138)
[5] = amyl acetate, oral theophylline 200 mg, Type III hyposmia (4)
[6] = amyl acetate, oral theophylline 400 mg
[7] = amyl acetate, oral theophylline 400 mg daily, all patients (120)
[8] = amyl acetate, oral theophylline 400 mg, Type I hyposmia (33)
[9] = amyl acetate, oral theophylline 400 mg, Type II hyposmia (85)
[10] = amyl acetate, oral theophylline 400 mg, Type III hyposmia (2)
[11] = amyl acetate, oral theophylline 600 mg daily, all patients (160)
[12] = amyl acetate, oral theophylline 600 mg, Type I hyposmia (51)
[13] = amyl acetate, oral theophylline 600 mg, Type II hyposmia (105)
[14] = amyl acetate, oral theophylline 600 mg, Type III hyposmia (4)
[15] = amyl acetate, oral theophylline 800 mg daily, all patients (28)
[16] = amyl acetate, oral theophylline 800 mg, Type I hyposmia (12)
[17] = amyl acetate, oral theophylline 800 mg, Type II hyposmia (16)
[18] = nitrobenzene, oral theophylline 200 mg
[19] = nitrobenzene, oral theophylline 200 mg daily, all patients (199)
[20] = nitrobenzene, oral theophylline 200 mg, Type I hyposmia (57)
[21] = nitrobenzene, oral theophylline 200 mg, Type II hyposmia (138)
[22] = nitrobenzene, oral theophylline 200 mg, Type III hyposmia (4)
[23] = nitrobenzene, oral theophylline 400 mg
[24] = nitrobenzene, oral theophylline 400 mg daily, all patients (120)
[25] = nitrobenzene, oral theophylline 400 mg, Type I hyposmia (33)
[26] = nitrobenzene, oral theophylline 400 mg, Type II hyposmia (85)
[27] = nitrobenzene, oral theophylline 400 mg, Type III hyposmia (2)
[28] = nitrobenzene, oral theophylline 600 mg daily, all patients (160)
[29] = nitrobenzene, oral theophylline 600 mg, Type I hyposmia (51)
[30] = nitrobenzene, oral theophylline 600 mg, Type II hyposmia (105)
[31] = nitrobenzene, oral theophylline 600 mg, Type III hyposmia (4)
[32] = nitrobenzene, oral theophylline 800 mg daily, all patients (28)
[33] = nitrobenzene, oral theophylline 800 mg, Type I hyposmia (12)
[34] = nitrobenzene, oral theophylline 800 mg, Type II hyposmia (16)

SMILES: Cn1c(=O)c2[nH]cnc2n(C)c1=O [theophylline]
- increase of H values (more pleasant) [1]: 2%
- increase of ME values [1]: 5%
- DT, detection threshold [2]: 7.9 ± 0.2^c BU
- H, hedonic estimation [2]: 3 ± 1%
- ME, magnitude estimation [2]: 15 ± 2^d %
- RT, recognition threshold [2]: 9.9 ± 0.2^c BU
- DT, detection threshold [3]: 10.5 ± 0.3^d BU
- H, hedonic value [3]: 4 ± 2^a %
- ME, magnitude estimation [3]: 6 ± 2^a %
- RT, recognition threshold [3]: 11.3 ± 0.2^ BU
- DT, detection threshold [4]: 7.0 ± 0.3^ BU
- H, hedonic value [4]: 3 ± 2^ %
- ME, magnitude estimation [4]: 19 ± 2^ %
- RT, recognition threshold [4]: 9.3 ± 0.2^ BU
- DT, detection threshold [5]: 2.8 ± 0.5 BU
- H, hedonic value [5]: 14 ± 13%
- ME, magnitude estimation [5]: 32 ± 10%
- RT, recognition threshold [5]: 5.2 ± 1.6 BU
- ME increases [6]: 8%
- change of H values (became more pleasant) [6]: 1%
- DT, detection threshold [7]: 7.1 ± 0.3^b BU
- H, hedonic estimation [7]: 3 ± 2^ %
- ME, magnitude estimation [7]: 18 ± 2^c %
- RT, recognition threshold [7]: 9.3 ± 0.3^b BU
- DT, detection threshold [8]: 10.1 ± 0.5^a BU
- H, hedonic value [8]: 5 ± 3^a %
- ME, magnitude estimation [8]: 7 ± 3^a %
- RT, recognition threshold [8]: 11.2 ± 0.3^ BU
- DT, detection threshold [9]: 6.1 ± 0.4^a BU
- H, hedonic value [9]: 0.3 ± 2.8^ %
- ME, magnitude estimation [9]: 21 ± 3^ %
- RT, recognition threshold [9]: 8.8 ± 0.4^a BU
- DT, detection threshold [10]: 2 BU
- H, hedonic value [10]: 75%
- ME, magnitude estimation [10]: 75%
- RT, recognition threshold [10]: 3 BU
- DT, detection threshold [11]: 7.8 ± 0.3^a BU
- H, hedonic estimation [11]: 4 ± 1^ %
- ME, magnitude estimation [11]: 15 ± 2^c %
- RT, recognition threshold [11]: 9.6 ± 0.2^a BU
- DT, detection threshold [12]: 10.1 ± 0.3^a BU
- H, hedonic value [12]: −0.4 ± 1^ %
- ME, magnitude estimation [12]: 5 ± 2^a %
- RT, recognition threshold [12]: 11.1 ± 0.2^ BU
- DT, detection threshold [13]: 6.8 ± 0.3^a BU
- H, hedonic value [13]: 7 ± 2^ %
- ME, magnitude estimation [13]: 19 ± 2^ %
- RT, recognition threshold [13]: 8.9 ± 0.3^a BU
- DT, detection threshold [14]: 2.5 ± 1.0 BU
- H, hedonic value [14]: 28 ± 19%
- ME, magnitude estimation [14]: 31 ± 17%
- RT, recognition threshold [14]: 4.8 ± 1.7 BU
- DT, detection threshold [15]: 7.2 ± 0.8^ BU
- H, hedonic estimation [15]: 8 ± 5^ %
- ME, magnitude estimation [15]: 24 ± 2^a %
- RT, recognition threshold [15]: 9.0 ± 0.5^b BU
- DT, detection threshold [16]: 10.6 ± 0.5^ BU
- H, hedonic value [16]: −1 ± 4^ %
- ME, magnitude estimation [16]: 5 ± 3^a %
- RT, recognition threshold [16]: 11.6 ± 0.4^ BU
- DT, detection threshold [17]: 4.6 ± 0.7^a BU
- H, hedonic value [17]: 13 ± 9^ %
- ME, magnitude estimation [17]: 38 ± 6^c %
- RT, recognition threshold [17]: 7.1 ± 0.6^a BU
- increase of H values (more pleasant) [18]: 2%
- increase of ME values [18]: 5%
- DT, detection threshold [19]: 7.8 ± 0.2^d BU
- H, hedonic estimation [19]: 6 ± 2^a %
- ME, magnitude estimation [19]: 17 ± 2 ^ %
- RT, recognition threshold [19]: 9.5 ± 0.2^a BU
- DT, detection threshold [20]: 10.3 ± 0.3^a BU
- H, hedonic value [20]: 4 ± 2^a %
- ME, magnitude estimation [20]: 5 ± 2^a %
- RT, recognition threshold [20]: 11.2 ± 0.2^d BU
- DT, detection threshold [21]: 6.9 ± 0.3^a BU
- H, hedonic value [21]: 7 ± 2^ %
- ME, magnitude estimation [21]: 22 ± 2^ %
- RT, recognition threshold [21]: 8.8 ± 0.3^ BU
- DT, detection threshold [22]: 3.8 ± 0.7 BU
- H, hedonic value [22]: 13 ± 12%
- ME, magnitude estimation [22]: 33 ± 8%
- RT, recognition threshold [22]: 5.0 ± 0.6 BU
- ME increases [23]: 11%
- change of H values (became more pleasant) [23]: 4%
- DT, detection threshold [24]: 7.2 ± 0.3^c BU
- H, hedonic estimation [24]: 8 ± 3^a %
- ME, magnitude estimation [24]: 23 ± 2^a %
- RT, recognition threshold [24]: 8.9 ± 0.3^b BU
- DT, detection threshold [25]: 9.8 ± 0.5^a BU
- H, hedonic value [25]: 3 ± 3^a %
- ME, magnitude estimation [25]: 8 ± 3^a %
- RT, recognition threshold [25]: 10.9 ± 0.4^e BU
- DT, detection threshold [26]: 6.3 ± 0.4^a BU
- H, hedonic value [26]: 11 ± 3^ %
- ME, magnitude estimation [26]: 27 ± 3^a %
- RT, recognition threshold [26]: 8.2 ± 0.4^a BU
- DT, detection threshold [27]: 2.5 BU
- H, hedonic value [27]: −62%
- ME, magnitude estimation [27]: 79%
- RT, recognition threshold [27]: 4.0 BU
- DT, detection threshold [28]: 7.8 ± 0.3^a BU
- H, hedonic estimation [28]: 8 ± 2^d %
- ME, magnitude estimation [28]: 18 ± 2^d %
- RT, recognition threshold [28]: 9.1 ± 0.2^c BU
- DT, detection threshold [29]: 9.9 ± 0.4^c BU
- H, hedonic value [29]: 2 ± 2^ %
- ME, magnitude estimation [29]: 6 ± 2^a %
- RT, recognition threshold [29]: 10.8 ± 0.3^ BU
- DT, detection threshold [30]: 6.8 ± 0.3^a BU
- H, hedonic value [30]: 11 ± 2^ %
- ME, magnitude estimation [30]: 24 ± 2^ %
- RT, recognition threshold [30]: 8.4 ± 0.3^ BU
- DT, detection threshold [31]: 3.8 ± 0.9 BU
- H, hedonic value [31]: 12 ± 16%
- ME, magnitude estimation [31]: 33 ± 13%
- RT, recognition threshold [31]: 4.5 ± 1.3 BU
- DT, detection threshold [32]: 7.0 ± 0.8^d BU
- H, hedonic estimation [32]: 13 ± 7 ^ %
- ME, magnitude estimation [32]: 25 ± 6 ^ %
- RT, recognition threshold [32]: 7.8 ± 0.8^d BU
- DT, detection threshold [33]: 10.1 ± 0.8^ BU
- H, hedonic value [33]: 2 ± 2^a %
- ME, magnitude estimation [33]: 4 ± 3^a %
- RT, recognition threshold [33]: 11.3 ± 0.7^ BU
- DT, detection threshold [34]: 4.6 ± 0.9^a BU
- H, hedonic value [34]: 22 ± 11^ %
- ME, magnitude estimation [34]: 42 ± 8^b %
- RT, recognition threshold [34]: 5.1 ± 0.9^a BU
- total mean increase of ME for all odors (oral theophylline 200 mg): 5.1%
- increase of H values for amyl acetate (oral theophylline 200 mg daily, not statistically significant): 50%
- total mean increase of ME for all odors (oral theophylline 400 mg): 10.4%
- decrease of H values for thiophene (oral theophylline 400 mg daily): 40%
- increase of H values for nitrobenzene (oral theophylline 400 mg daily, not statistically significant): 50%
